The numbers were not newly measured in US9452976B2, “Pactamycin analogs and methods of making thereof” (Oregon State University, priority 2007, dated 2016), which cites them from elsewhere.

The subject of series [1] is Gram-positive and Gram-negative bacteria.
For series [2] the following is noted: reason clinical application was abandoned.

On to `CC[C@]1(NC(=O)N(C)C)[C@@H](N)[C@H](Nc2cccc(C(C)=O)c2)[C@](O)(COC(=O)c2c(C)cccc2O)[C@]1(C)O` [7-Deoxypactamycin, 7-deoxypactamycin], for which the “activity against a number of Gram-positive and Gram-negative bacteria, compared with pactamycin” value in series [1] (relative to pactamycin) is recorded as “equally active”.
For `CC(=O)c1cccc(N[C@H]2[C@H](N)[C@@](NC(=O)N(C)C)([C@H](C)O)[C@@](C)(O)[C@@]2(O)COC(=O)c2c(C)cccc2O)c1` [Pactamycin, pactamycin], the “antibacterial activities against Gram-positive and Gram-negative bacteria” value in series [1] (Bhuyan, Appl. Microbiol. 1962) is listed as “potent antibacterial activities”. In the series with tumor, the anti-tumor activity entry was “strong anti-tumor activity”. In addition, the toxicity result in series [2] is recorded as “high toxicity”.
As to `CC(=O)c1cccc(N[C@H]2[C@H](N)[C@]3(NC(=O)O[C@H]3C)[C@@](C)(O)[C@@]2(O)COC(=O)c2c(C)cccc2O)c1` [pactamycate], in series [1], the “bioactivity of the cyclic derivative formed by attack of C-7 hydroxyl on the carbamoyl carbonyl” value is “inactive”.
